# Data taken from ChEMBL document CHEMBL1123161, “Synthesis and evaluation of 4-(substituted thio)-4-androstene-3,17-dione derivatives as potential aromatase inhibitors” (J Med Chem, 1986).
# pKi: −log10 of the molar value.
# Experiments:
# [1] = molecular target: T1, Aromatase (Homo sapiens, UniProt P11511)
# T1 sequence (P11511 whole entry): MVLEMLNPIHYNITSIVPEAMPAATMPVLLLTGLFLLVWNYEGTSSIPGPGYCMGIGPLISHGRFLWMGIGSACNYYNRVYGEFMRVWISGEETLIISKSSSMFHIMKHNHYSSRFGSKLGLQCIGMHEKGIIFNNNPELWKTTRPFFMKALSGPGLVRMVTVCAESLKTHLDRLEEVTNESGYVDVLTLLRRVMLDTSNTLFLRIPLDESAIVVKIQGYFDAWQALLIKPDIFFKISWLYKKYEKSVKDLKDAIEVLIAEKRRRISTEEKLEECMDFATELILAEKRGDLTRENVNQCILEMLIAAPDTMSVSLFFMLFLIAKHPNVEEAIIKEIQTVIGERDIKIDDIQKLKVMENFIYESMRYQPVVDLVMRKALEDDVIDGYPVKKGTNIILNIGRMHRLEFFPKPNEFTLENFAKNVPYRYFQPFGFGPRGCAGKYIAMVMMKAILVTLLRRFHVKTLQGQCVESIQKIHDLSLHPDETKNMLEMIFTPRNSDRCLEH
# Description: (§1) Inhibition of Cytochrome P450 19A1 at the concentration of 0.75 uM
# [2] = molecular target: T1, Aromatase; remark: listed apart in the source
# Description: (§2) Inhibition of Cytochrome P450 19A1 at the concentration of 1.5 uM
# [3] = molecular target: T1, Aromatase; assay: Evaluated for its competitive inhibitory activity against Cytochrome P450 19A1 with the use of human placental microsomal preparation; design: species or system Placenta; conditions: read-out: Ki app
# [4] = molecular target: T1, Aromatase; remark: listed apart in the source
# Description: (§3) Inhibition of Cytochrome P450 19A1 at the concentration of 0.25 uM
# [5] = molecular target: T1, Aromatase; conditions: 0.25 µM
# Description: as §3
# [6] = molecular target: T1, Aromatase; conditions: 0.75 µM
# Description: as §1
# [7] = molecular target: T1, Aromatase; conditions: 1.5 µM
# Description: as §2
SMILES,inhibition at 0.75 µM [1] [%],inhibition at 1.5 µM [2] [%],pKi [3],inhibition at 0.25 µM [4] [%],Inhibition [5] [%],Inhibition [6] [%],Inhibition [7] [%]
CC(=O)SC1=C2CCC3C4CCC(=O)C4(C)CCC3C2(C)CCC1=O (stereo not drawn),42,58,7.14,19,–,–,–
CCSC1=C2CCC3C4CCC(=O)C4(C)CCC3C2(C)CCC1=O (stereo not drawn),45,52,7.39,26,–,–,–
CCCSC1=C2CCC3C4CCC(=O)C4(C)CCC3C2(C)CCC1=O (stereo not drawn),42,49,7.19,25,–,–,–
CCCCCSC1=C2CCC3C4CCC(=O)C4(C)CCC3C2(C)CCC1=O (stereo not drawn),4,8,–,2,–,–,–
Cc1ccc(SC2=C3CCC4C5CCC(=O)C5(C)CCC4C3(C)CCC2=O)cc1 (stereo not drawn),27,31,–,14,–,–,–
CC12CCC3C(CCC4=C(SCc5ccccc5)C(=O)CCC43C)C1CCC2=O (stereo not drawn),5,8,–,2,–,–,–
CC(=O)OC1=C2CCC3C4CCC(=O)C4(C)CCC3C2(C)CCC1=O (stereo not drawn),70,78,–,38,–,–,–
CC12CCC3C(CCC4=C(Sc5ccccc5)C(=O)CCC43C)C1CCC2=O (stereo not drawn),55,68,7.44,36,–,–,–
CC12CCC3C(CCC4=C(Sc5ccc([N+](=O)[O-])cc5)C(=O)CCC43C)C1CCC2=O (stereo not drawn),0,0,–,0,–,–,–
CCCCSC1=C2CCC3C4CCC(=O)C4(C)CCC3C2(C)CCC1=O (stereo not drawn),12,18,–,8,–,–,–
CSC1=C2CCC3C4CCC(=O)C4(C)CCC3C2(C)CCC1=O (stereo not drawn),61,74,7.23,39,–,–,–
CC12CCC3C(CCC4=C(S)C(=O)CCC43C)C1CCC2=O (stereo not drawn),52,63,–,31,–,–,–
CC12CCC3C(CCC4=C(Sc5ccc(Br)cc5)C(=O)CCC43C)C1CCC2=O (stereo not drawn),4,6,–,0,–,–,–
COc1ccc(SC2=C3CCC4C5CCC(=O)C5(C)CCC4C3(C)CCC2=O)cc1 (stereo not drawn),0,2,–,0,–,–,–
CC12CCC3C(CCC4=C(Sc5ccc(N)cc5)C(=O)CCC43C)C1CCC2=O (stereo in doubt),–,–,7.74,–,46,70,82
CC12CCC3C(CCC4=C(Sc5ccc(N)cc5)C(=O)CCC43C)C1CCC2=O (stereo in doubt; 14),–,–,–,–,0,0,0
C[C@]12CCC(=O)C(O)=C1CC[C@@H]1[C@@H]2CC[C@]2(C)C(=O)CC[C@@H]12 [FORMESTANE],74,84,7.27,49,–,–,–
